Patent US5200422A, “Benzimidazole derivatives, their preparation and use” (priority 1991, dated 1993)
Read-outs that look alike come from different tables or passages of the source.

Tests used:
Format in all cases: cell-based
BKCa channel [1] = assay: Single channel experiments, inside-out patches of cerebellar granule cell membrane
Method: (§1) All experiments were performed with patch-clamp technique (Hamill et al., Pflugers Arch. 391, 85-100 (1981). The ion composition of the internal solution was (in mM) 4 NaCl, 140 KCl, 1 CaCl2, 1 MgCl2, 2 EGTA, 10 HEPES and the external solution contained 140 NaCl, 4 KCl, 2 CaCl2, 1 MgCl2 and 10 HEPES.
In inside-out patches of cerebellar granule cell membrane single BKCa channels were activated by for example 5-trifluoromethyl-1-(5-chloro-2-hydroxyphenyl)-1,3-dihydro-2H-benzimidazole-2-one (3-10 μM), 5-trifluoromethyl-I-(2-hydroxyphenyl)-1,3-dihydro-2H-benzimidazole-2-one ([…]), 5-trifluoromethyl-1-(5-phenyl-2-hydroxyphenyl)-1,3-dihydro-2H-benzimidazole-2-one (3-30 μM). […] No effect was found on the delayed rectifier K^+ channel or on the Cl^- channels also present in the patches.
(§2) The BKCa channel in granule cells has been studied in symmetric 144 mM K^+, and under these conditions the average conductance is 154 pS (76 pS with 4 mM external K^+).

BKCa channel [2] = assay: Outside-out patches of granule cells, channel block; conditions: silent periods interdispersed with periods of low or normal activity
Method: as §1, §2

BKCa channel [3] = biological target: BKCa channel (Bos taurus, UniProt Q28204); assay: Patch-clamp, cultured bovine aortic smooth muscle cells
BKCa channel (Bos taurus, UniProt Q28204), sequence (Q28204 whole entry): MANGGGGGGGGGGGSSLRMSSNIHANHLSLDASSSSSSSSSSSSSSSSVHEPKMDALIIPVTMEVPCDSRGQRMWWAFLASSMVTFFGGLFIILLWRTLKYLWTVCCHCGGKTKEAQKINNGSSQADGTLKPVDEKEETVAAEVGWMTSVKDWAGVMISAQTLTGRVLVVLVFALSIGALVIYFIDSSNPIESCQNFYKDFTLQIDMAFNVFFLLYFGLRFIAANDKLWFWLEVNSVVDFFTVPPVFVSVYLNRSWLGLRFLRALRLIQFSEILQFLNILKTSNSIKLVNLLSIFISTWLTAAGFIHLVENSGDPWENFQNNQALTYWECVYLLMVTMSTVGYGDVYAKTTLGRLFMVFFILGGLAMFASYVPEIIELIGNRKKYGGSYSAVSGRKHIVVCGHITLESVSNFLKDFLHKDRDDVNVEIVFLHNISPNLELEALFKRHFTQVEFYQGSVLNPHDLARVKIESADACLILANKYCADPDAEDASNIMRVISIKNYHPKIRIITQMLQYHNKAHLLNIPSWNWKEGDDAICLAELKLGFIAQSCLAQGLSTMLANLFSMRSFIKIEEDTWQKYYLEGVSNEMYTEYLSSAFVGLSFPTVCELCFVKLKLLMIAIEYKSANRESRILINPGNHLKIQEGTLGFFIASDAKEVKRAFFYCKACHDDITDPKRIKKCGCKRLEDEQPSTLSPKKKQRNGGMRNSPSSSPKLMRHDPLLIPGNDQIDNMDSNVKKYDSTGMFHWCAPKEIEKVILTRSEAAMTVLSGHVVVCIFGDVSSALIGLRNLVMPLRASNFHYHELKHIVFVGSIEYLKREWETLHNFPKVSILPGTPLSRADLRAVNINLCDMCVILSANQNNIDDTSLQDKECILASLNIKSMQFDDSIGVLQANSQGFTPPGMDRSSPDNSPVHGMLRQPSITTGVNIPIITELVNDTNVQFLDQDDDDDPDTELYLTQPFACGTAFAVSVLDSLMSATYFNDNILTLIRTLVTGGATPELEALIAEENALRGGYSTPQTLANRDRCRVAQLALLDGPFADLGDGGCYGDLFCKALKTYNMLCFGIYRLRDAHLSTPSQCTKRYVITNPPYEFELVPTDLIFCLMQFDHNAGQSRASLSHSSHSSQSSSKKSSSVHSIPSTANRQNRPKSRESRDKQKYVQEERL
BKCa channel (Bos taurus, UniProt Q28204), sequence (Q28067 whole entry partner): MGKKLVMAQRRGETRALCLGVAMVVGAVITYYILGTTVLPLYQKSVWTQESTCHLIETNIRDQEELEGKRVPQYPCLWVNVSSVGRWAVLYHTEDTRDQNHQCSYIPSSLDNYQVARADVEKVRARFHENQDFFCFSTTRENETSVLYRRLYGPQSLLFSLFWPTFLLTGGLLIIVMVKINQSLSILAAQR
Method: as §1

160-180 pS BKCa channel = assay: Patch-clamp, cultured guinea pig tracheal smooth muscle cells
Method: as §1

[4] = test system: N1E-115 neuroblastoma cells; assay: Whole cell recordings: membrane potential in current clamp mode; conditions: 30 μM to the bath
Method: as §1
The membrane potential of N1E-115 neuroblastoma cells was determined in whole-cell recordings using current clamp mode (HEKA EPC-9 patch-clamp amplifier) Due to the high-resistance seal and the large size of these cells, the recorded membrane potential stayed stable for periods of 30-60 min, although at somewhat depolarized values (-15--60 Mv).
The equilibrium potentials for K^+, Cl^-, and Na^+ in these experiments were -90 mV, 0 mV, and +90 mV, respectively (cf. ion composition above) Thus, since potassium is the only ion having a reversal potential more negative than the resting membrane potential, the observed hyperpolarization induced by the test compound must be explained through an increased potassium conductance.

With `O=c1[nH]c2cc(C(F)(F)F)ccc2n1-c1ccccc1O` [5-trifluoromethyl-1,3-dihydro-1-(2-hydroxyphenyl)-2H-benzimidazol-2-one] the “activation of single BKCa channels” value (BKCa channel [1]) was “activated”.

In the case of Charybdotoxin, the “block of the BKCa channel” value (BKCa channel [2]) is reported as “blocks the channel”.

`O=c1[nH]c2cc(C(F)(F)F)c([N+](=O)[O-])cc2n1-c1cc(Cl)cc([N+](=O)[O-])c1O` [1,3-dihydro-1-(5-chloro-3-nitro-2-hydroxyphenyl)-5-trifluoromethyl-6-nitro-2H-benzimidazol-2-one] was tested, and the “activation of the BKCa channel” value (BKCa channel [3]; 1-3 μM) was “significantly activated”.

With `O=c1[nH]c2cc(C(F)(F)F)ccc2n1-c1cc2ccccc2cc1O` [1,3-dihydro-1-(3-hydroxy-2-naphthyl)-5-trifluoromethyl-2H-benzimidazol-2-one] the “activation of the BKCa channel” value (BKCa channel [3]; 3-30 μM) was “significantly activated”.

For `O=c1[nH]c2cc(Cl)c(Cl)cc2n1-c1cc(Cl)ccc1O` [1,3-dihydro-1-(5-chloro-2-hydroxyphenyl)-5,6-dichloro-2H-benzimidazole-2-one], the “activation of the BKCa channel” value (BKCa channel [3]; 3-30 μM) was “significantly activated”.

In the case of `Oc1ccccc1-n1c(=S)[nH]c2cc(C(F)(F)F)ccc21` [1,3-dihydro-1-(2-hydroxyphenyl)-5-trifluoromethyl-2H-benzimidazole-2-thion], the “activation of the BKCa channel” value (BKCa channel [3]; 3-30 μM) is reported as “significantly activated”.

`O=c1[nH]c2cc(C(F)(F)F)ccc2n1-c1cc(Cl)ccc1O` [1-(5-chloro-2-hydroxyphenyl)-5-trifluoromethyl-1,3-dihydro-2H-benzimidazol-2-one] was tested, and the “activation of the BKCa channel” value (160-180 pS BKCa channel) was “potently activated”, the “delay before hyperpolarization of the cells” value [4] was 1 to 3 min and the average hyperpolarization ([4]; current clamp, SD=-5 Mv, n=8) was -14 Mv. For the same compound, the “activation of the BKCa channel” value (BKCa channel [3]; 3-30 μM) was “significantly activated” and the “activation of single BKCa channels” value (BKCa channel [1]; 3-10 μM) was “activated”.

With `O=c1[nH]c2cc(C(F)(F)F)ccc2n1-c1cc(-c2ccccc2)ccc1O` [1,3-dihydro-1-(5-phenyl-2-hydroxyphenyl)-5-trifluoromethyl-2H-benzimidazol-2-one] the “activation of the BKCa channel” value (BKCa channel [3]; 3-30 μM) was “significantly activated” and the “activation of single BKCa channels” value (BKCa channel [1]; 3-30 μM) was “activated”.
